According to paper PMC11951083, “Highly Specific Miniaturized Fluorescent Monoacylglycerol Lipase Probes Enable Translational Research” (Journal of the American Chemical Society, 2025):

How the values were obtained:
[1] = target: T1, MAGL (Homo sapiens, UniProt Q99685); assay: Surface plasmon resonance on human MAGL; format: binding; conditions: SPR
T1 sequence (Q99685 1-303): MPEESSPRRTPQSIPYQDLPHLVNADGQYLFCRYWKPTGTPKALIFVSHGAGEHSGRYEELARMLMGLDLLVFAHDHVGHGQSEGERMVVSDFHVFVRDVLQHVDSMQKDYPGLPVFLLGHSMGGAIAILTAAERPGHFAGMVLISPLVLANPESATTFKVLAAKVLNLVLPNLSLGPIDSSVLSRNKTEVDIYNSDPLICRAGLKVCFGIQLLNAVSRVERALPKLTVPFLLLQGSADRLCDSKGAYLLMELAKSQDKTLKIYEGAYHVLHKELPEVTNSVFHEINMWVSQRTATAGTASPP
Experimental: High throughput kinetic solubility measurement was performed as previously described in the […]
Surface plasmon resonance
EDC/NHS coupling with a final protein concentration of 0.06 mg/mL: 10 mM acetate pH 5.5 + 10µM RO7224999-000-001(reference binder). No quenching was applied after immobilization, but the surface was left with a running buffer for 1 h to hydrolyze and stabilize.
Running buffer: […], 150 mM NaCl, 0.05% P20, pH 7.4 + 50 µM EDTA, 1% DMSO Instrument:
Biacore T200 Sensorchip: CM5 Temperature: 18 °C concentration series: 5 concentration 3-fold dilution, top conc 0.5 µM, contact time 180s, dissociation time 300s before each compound a blank injection for double referencing was measured. Each compound was followed by 9 injections of Control, RO7283571 (60 s contact time, 200 s dissociation time, 10 µM) to validate surface activity and recovery to determine off rates.
Dissociation was trimmed for compounds showing faster kinetics to suppress the over-fitting of baseline drift. Data was fitted with 1:1 model with an added drift parameter to improve fit quality and to compensate from insufficient drift correction with the double referencing. Off rates (koff) were determined by recovery of reference binding. The signal was first blank subtracted, and the corrected chaser response was plotted versus time and fitted to an exponential decay model. […]

[2] = target: T1, MAGL; assay: Fluorescence polarization titration of probe 5 with purified hMAGL; format: binding; conditions: FP titration, probe 20 nM
Experimental: Fluorescence Polarization Assay
Determination of the Kd of the fluorescent probes
Commercially available purified hMAGL protein (Cepter Biopartners, Nutley, NJ, USA) was diluted in PBS-buffer pH 7.4 + 0.1% Tween 80, in a range of concentrations and incubated with compound 5 (20 nM = [L]T) at ambient temperature for 60 min. Fluorescence polarization was determined via a Tecan Spark multimode plate reader (Ex/Em = 482/502 nm , 7.5 nm bandwidth each) in a 384 flat black well plate (Corning); six measurements per data point. The experiment was carried out in triplicate. Data were analyzed via GraphPad Prism 5.0 software. K d of the fluoroprobe was calculated from the observed MAGL concentration at half-maximal FP (FP50) as follows.
K = [L][P] = 0.5 [L]T (FP50 − 0.5 [L]T) = FP − 0.5 [L]
Competitive FP Binding Assay hMAGL in PBS-buffer pH 7.4 + 0.1% tween 80 at a final concentration of 50 nM was incubated with a range of inhibitor DMSO solutions (5µL) (serial dilution 1:3) for 30 min at ambient temperature in a 384 flat black well plate (Corning). […] After 30 min incubation at ambient temperature, fluorescence polarization was determined as described above. Data were analyzed via GraphPad Prism 5.0 software, and IC50 values were converted to Ki according to Nikolovska-Coleska et al. 28 Under these conditions the assay performed with an average z´= 0.90. […]

SMILES	residence time [1] [min]	Kd [2] [nM]
O=C1CO[C@H]2CCN(C(=O)N3CC4(CC(CC5=C6C=CC=[N+]6[B-](F)(F)n6cccc65)C4)C3)C[C@H]2N1 [Compound 4]	37	–
O=C(N1CC2(CC(CC3=C4C=CC=[N+]4[B-](F)(F)n4cccc43)C2)C1)N1CC2(CC(n3cnc(C4CC4)n3)C2)C1 [Compound 5]	44	6.65
